Assay results as given in patent publication US20170209472A1, “PREVENTION OR TREATMENT OF FOOD ALLERGY IN INFANTS AND TODDLERS” (N.V. Nutricia, priority 2014, published 2017).

Experiments:
[1] = water and polar solvents such as methanol and acetonitrile; cited from earlier work
IL-33 [2] = conditions: distal small intestine after DON gavage, vs control mice
Caco-2 cells = experiment: IL-33 in DON-stimulated Caco-2 cells; assay type: cell-based; conditions: data not shown
[3] = test system: whey protein allergy response; conditions: C3H/HeOuJ mice sensitized with low or high dose DON with or without whey; FIG. 2
IL-33 mRNA = conditions: distal small intestine, 6 h after oral DON gavage 25 mg/kg, vs control mice
IL-33 [4] = experiment: systemic IL-33 measured by ELISA in mice serum; assay type: in vivo; conditions: DON gavage; data not shown

CC1=C[C@H]2O[C@@H]3[C@H](O)C[C@](C)([C@@]2(CO)[C@H](O)C1=O)[C@]31CO1 [DON, (3α, 7α)-3,7,15-trihydroxy-12,13-epoxytrichothec-9-en-8-one]
solubility [1]: soluble
IL-33 production (immunohistochemistry) (IL-33 [2]): obviously increased
IL-33 levels in the supernatant (Caco-2 cells): did not induce increased
IL-33 mRNA expression levels (Caco-2 cells): did not induce increased
whey protein allergy response (ear swelling) [3]: significantly increases
IL-33 mRNA expression (IL-33 mRNA): increase
systemic IL-33 in serum (IL-33 [4]): neither affected
